How the values were obtained:
Cytochrome P450 2E1 = Cytochrome P450 2E1 (Homo sapiens, UniProt P05181); conditions: bti-tn-5b1-4; note: in other assays of this panel Not Active means under 50% inhibition at 10 µM
[1] = molecular target: Sodium-dependent noradrenaline transporter (Homo sapiens, UniProt P23975); experiment: DRUGMATRIX: Norepinephrine Transporter radioligand binding (ligand: [125I] RTI-55); assay type: cell membranes, MDCK, Membrane; conditions: mdck; Not Active = under 50% inhibition at 10 µM
Sodium-dependent noradrenaline transporter, sequence (P23975 whole entry): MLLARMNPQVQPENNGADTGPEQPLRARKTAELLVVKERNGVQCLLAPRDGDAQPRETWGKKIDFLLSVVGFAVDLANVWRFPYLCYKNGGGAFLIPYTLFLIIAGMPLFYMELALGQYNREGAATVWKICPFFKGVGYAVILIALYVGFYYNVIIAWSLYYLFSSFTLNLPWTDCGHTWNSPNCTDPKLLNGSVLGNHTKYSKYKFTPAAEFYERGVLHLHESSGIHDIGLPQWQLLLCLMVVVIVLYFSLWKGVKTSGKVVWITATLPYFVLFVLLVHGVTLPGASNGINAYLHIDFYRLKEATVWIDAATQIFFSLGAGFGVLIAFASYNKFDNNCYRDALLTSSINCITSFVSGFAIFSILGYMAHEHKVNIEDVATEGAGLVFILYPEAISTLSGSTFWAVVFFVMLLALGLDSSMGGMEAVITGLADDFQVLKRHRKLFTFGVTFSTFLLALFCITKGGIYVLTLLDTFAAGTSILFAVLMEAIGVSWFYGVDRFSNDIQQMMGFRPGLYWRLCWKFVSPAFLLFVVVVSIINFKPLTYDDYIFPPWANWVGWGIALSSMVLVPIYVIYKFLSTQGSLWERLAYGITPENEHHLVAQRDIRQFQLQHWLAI

[2] = molecular target: 5-hydroxytryptamine receptor 2B (Homo sapiens, UniProt P41595); assay type: cell membranes, CHO-K1, Membrane; note: in other assays of this panel Not Active means under 50% inhibition at 10 µM
5-hydroxytryptamine receptor 2B, sequence (P41595 whole entry): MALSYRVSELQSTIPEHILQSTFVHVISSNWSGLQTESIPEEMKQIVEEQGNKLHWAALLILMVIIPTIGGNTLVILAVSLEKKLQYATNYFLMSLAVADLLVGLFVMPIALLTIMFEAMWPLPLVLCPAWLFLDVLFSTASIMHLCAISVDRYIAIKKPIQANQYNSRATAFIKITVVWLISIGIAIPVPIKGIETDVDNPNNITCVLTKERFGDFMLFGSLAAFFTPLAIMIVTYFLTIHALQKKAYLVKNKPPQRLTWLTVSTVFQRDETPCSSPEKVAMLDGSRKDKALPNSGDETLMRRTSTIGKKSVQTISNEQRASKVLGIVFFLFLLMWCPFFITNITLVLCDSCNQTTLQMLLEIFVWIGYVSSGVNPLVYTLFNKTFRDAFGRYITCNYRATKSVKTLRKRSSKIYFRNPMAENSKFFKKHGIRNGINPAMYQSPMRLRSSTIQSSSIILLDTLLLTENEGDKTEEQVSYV

Cytochrome P450 1A2 = molecular target: T1, Cytochrome P450 1A2 (Homo sapiens, UniProt P05177); conditions: bti-tn-5b1-4; note: in other assays of this panel Not Active means under 50% inhibition at 10 µM
T1 sequence (P05177 whole entry): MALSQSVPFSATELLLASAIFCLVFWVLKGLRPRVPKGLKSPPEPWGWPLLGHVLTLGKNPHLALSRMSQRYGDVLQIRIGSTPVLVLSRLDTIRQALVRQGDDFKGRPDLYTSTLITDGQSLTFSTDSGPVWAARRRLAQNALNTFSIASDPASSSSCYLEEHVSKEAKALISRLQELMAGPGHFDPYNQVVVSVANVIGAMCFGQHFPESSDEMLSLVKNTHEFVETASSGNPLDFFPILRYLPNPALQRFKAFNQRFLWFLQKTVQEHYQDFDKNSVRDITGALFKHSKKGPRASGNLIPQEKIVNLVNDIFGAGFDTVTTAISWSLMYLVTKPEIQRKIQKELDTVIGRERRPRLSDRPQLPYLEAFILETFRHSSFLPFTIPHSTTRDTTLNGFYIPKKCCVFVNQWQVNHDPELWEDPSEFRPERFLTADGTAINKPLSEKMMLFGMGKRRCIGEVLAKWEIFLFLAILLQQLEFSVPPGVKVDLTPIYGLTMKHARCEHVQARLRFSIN

[3] = molecular target: Voltage-gated inwardly rectifying potassium channel KCNH2 (Homo sapiens, UniProt Q12809); conditions: hek293; note: in other assays of this panel Not Active means under 50% inhibition at 10 µM
Voltage-gated inwardly rectifying potassium channel KCNH2, sequence (Q12809 whole entry): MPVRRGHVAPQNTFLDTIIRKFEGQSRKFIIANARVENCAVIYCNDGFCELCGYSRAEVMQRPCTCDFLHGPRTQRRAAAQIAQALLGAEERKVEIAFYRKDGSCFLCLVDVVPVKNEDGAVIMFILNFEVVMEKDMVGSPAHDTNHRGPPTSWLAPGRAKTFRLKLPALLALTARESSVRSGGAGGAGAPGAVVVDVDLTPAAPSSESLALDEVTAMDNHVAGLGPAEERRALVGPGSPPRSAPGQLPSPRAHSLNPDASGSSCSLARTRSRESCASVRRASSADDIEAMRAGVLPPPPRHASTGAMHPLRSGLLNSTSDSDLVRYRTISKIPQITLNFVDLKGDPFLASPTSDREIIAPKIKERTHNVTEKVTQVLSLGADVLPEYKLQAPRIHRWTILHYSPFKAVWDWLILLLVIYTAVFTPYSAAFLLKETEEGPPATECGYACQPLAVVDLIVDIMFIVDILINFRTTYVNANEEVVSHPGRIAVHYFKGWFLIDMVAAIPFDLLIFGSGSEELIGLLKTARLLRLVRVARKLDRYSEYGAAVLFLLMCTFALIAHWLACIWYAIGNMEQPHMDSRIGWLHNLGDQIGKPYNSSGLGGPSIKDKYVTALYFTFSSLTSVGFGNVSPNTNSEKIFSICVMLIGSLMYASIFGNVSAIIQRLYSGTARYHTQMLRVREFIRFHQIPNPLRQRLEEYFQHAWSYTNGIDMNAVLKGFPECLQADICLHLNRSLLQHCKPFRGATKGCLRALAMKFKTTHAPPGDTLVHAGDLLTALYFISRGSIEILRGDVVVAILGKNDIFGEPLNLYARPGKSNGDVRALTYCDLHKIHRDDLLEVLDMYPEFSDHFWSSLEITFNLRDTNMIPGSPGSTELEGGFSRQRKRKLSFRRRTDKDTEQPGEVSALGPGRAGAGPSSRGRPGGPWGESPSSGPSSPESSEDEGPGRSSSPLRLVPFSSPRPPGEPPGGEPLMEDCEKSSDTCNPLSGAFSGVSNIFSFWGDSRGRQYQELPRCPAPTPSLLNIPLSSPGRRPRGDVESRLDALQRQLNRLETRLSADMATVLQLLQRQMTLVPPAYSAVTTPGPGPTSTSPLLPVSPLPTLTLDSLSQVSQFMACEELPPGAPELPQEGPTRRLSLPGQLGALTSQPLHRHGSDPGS

Cytochrome P450 2E1, sequence (P05181 whole entry): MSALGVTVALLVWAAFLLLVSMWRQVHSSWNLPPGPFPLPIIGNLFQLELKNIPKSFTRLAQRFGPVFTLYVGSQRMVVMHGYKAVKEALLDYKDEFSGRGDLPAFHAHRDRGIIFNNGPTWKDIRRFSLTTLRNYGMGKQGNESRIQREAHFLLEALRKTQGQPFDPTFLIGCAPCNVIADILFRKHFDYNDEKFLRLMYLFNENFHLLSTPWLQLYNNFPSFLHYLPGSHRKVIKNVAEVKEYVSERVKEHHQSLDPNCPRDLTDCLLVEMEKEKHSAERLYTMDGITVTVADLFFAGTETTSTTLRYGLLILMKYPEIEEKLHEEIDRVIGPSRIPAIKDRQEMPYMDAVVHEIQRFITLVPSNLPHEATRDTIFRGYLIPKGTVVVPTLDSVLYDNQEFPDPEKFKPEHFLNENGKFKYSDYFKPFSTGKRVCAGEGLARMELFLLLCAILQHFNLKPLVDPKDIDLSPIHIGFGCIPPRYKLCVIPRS

Row | SMILES | IC50 (Cytochrome P450 2E1) | Ki (Cytochrome P450 2E1) | IC50 [1] | IC50 ([2]; cho-k1) | IC50 (Cytochrome P450 1A2) | Ki (Cytochrome P450 1A2) | IC50 [3] | Ki [3] | IC50 ([2]; read-out: IC50) [µM] | Ki ([2]; read-out: Ki) [µM]
1 | CC[C@@]1(O)C(=O)OCc2c1cc1n(c2=O)Cc2cc3c(CN(C)C)c(O)ccc3nc2-1 [TOPOTECAN] | Not Active | Not Active | Not Active | Not Active | Not Active | Not Active | Not Active | Not Active |  | 
2 | Cc1ccc(Cl)c(Nc2ccccc2C(=O)O)c1Cl [MECLOFENAMIC ACID] | Not Active | Not Active | Not Active | Not Active | Not Active | Not Active | Not Active | Not Active |  | 
3 | Cc1ccnc(NS(=O)(=O)c2ccc(N)cc2)n1 [SULFAMERAZINE] | Not Active | Not Active | Not Active | Not Active | Not Active | Not Active | Not Active | Not Active |  | 
4 | C[C@]12CCC(=O)C[C@@H]1CC[C@@H]1[C@@H]2CC[C@]2(C)[C@@H](O)CC[C@@H]12 [STANOLONE] | Not Active | Not Active | Not Active | Not Active | Not Active | Not Active | Not Active | Not Active |  | 
5 | C[N+]1(C)[C@@H]2C[C@@H](OC(=O)[C@H](CO)c3ccccc3)C[C@H]1[C@@H]1O[C@@H]12.[Br-] [METHSCOPOLAMINE BROMIDE] | Not Active | Not Active |  | Not Active | Not Active | Not Active | Not Active | Not Active |  | 
6 | OC[C@@H](O)[C@@H](O)[C@H](O)[C@H](O)CO [MANNITOL] | Not Active | Not Active | Not Active | Not Active | Not Active | Not Active | Not Active | Not Active |  | 
7 | O=C(O)c1cc(/N=N/c2ccc(S(=O)(=O)Nc3ccccn3)cc2)ccc1O [SULFASALAZINE] | Not Active | Not Active | Not Active | Not Active | Not Active | Not Active | Not Active | Not Active |  | 
8 | CC1=C(/C=C/C(C)=C/C=C/C(C)=C/C(=O)O)C(C)(C)CCC1 [TRETINOIN] | Not Active | Not Active | Not Active |  | Not Active | Not Active |  |  | 0.358 | 0.228
9 | CCN(CC)N=O [N-NITROSODIETHYLAMINE] | Not Active | Not Active | Not Active | Not Active | Not Active | Not Active | Not Active | Not Active |  | 
10 | Cc1cc2c(s1)Nc1ccccc1N=C2N1CCN(C)CC1 [OLANZAPINE] | Not Active | Not Active | Not Active |  | Not Active | Not Active |  |  |  | 
11 | CC#C[C@]1(O)CC[C@H]2[C@@H]3CCC4=CC(=O)CCC4=C3[C@@H](c3ccc(N(C)C)cc3)C[C@@]21C [MIFEPRISTONE] | Not Active | Not Active | Not Active | Not Active | Not Active | Not Active |  |  |  | 
12 | CS(=O)(=O)c1ccc(C2=C(c3ccccc3)C(=O)OC2)cc1 [ROFECOXIB] | Not Active | Not Active | Not Active | Not Active | Not Active | Not Active | Not Active | Not Active |  | 
13 | CC1(C)[C@H](C(=O)O)N2C(=O)C[C@H]2S1(=O)=O [SULBACTAM] | Not Active | Not Active | Not Active | Not Active | Not Active | Not Active | Not Active | Not Active |  | 
14 | CO[C@@H]1[C@@H](OC)[C@H](C)[C@@](O)(CC(=O)O)O[C@H]1[C@H](C)[C@H]1O[C@@]2(CC[C@@](C)([C@H]3CC[C@@](C)([C@@H]4O[C@@H]([C@H]5O[C@](C)(O)[C@H](C)C[C@@H]5C)C[C@@H]4O[C@@H]4C[C@H](OC)[C@@H](OC)[C@H](C)O4)O3)O2)C[C@H](O)[C@H]1C.N [MADURAMICIN] | Not Active | Not Active | Not Active | Not Active | Not Active | Not Active | Not Active | Not Active |  | 
15 | CNCCCC12CCC(c3ccccc31)c1ccccc12 [MAPROTILINE] |  |  |  |  |  |  | Not Active | Not Active |  | 
16 | O=C(c1ccccc1)c1ccc2n1CCC2C(=O)O (stereo not given) [KETOROLAC] | Not Active | Not Active | Not Active | Not Active | Not Active | Not Active | Not Active | Not Active |  | 

From ChEMBL document CHEMBL1909046, “DrugMatrix in vitro pharmacology data”
